Reference: patent publication US4758558A, “N-(substituted)-[7-(2-cyanoacetamido)cephalosporanic]amide derivatives having antibiotic utility” (priority 1982, dated 1988)

Assays:
a species of Bacteroides = assay: Effect on intestinal bacteria: number of a sp. of Bacteroides in feces; type: in vivo, ICR mice; settings: mouse, in vivo, po, 500 mg/kg/day
Protocol: (§1) (b) Effect on the intestinal bacterial colonies: […]
(§2) Effects of the present compound on intestinal bacteria
(§3) Each of the present compounds respectively produced in Examples 1 to 18 was orally administered continuously for 2 days at a daily dose rate of 500 mg/kg body weight to each of five female ICR mice of each group after 6 weeks of their birth.
(§4) Each of the two fecal specimens respectively collected from each mouse before and after one day of the administration was diluted with 100 times by weight of an anaerobic diluent (a phosphoric acid buffer solution) and was ground in a mortar, and 0.1 ml of the thus ground material was smeared on each of the following culture media for the following bacteria, and the thus inoculated culture media were incubated under the following conditions. Thereafter, the number of the following bacteria in each of the thus cultured media was determined.
a species of Bacteroides
NBGT agar 37° C., 5 days, […]

[1] = system: Staphylococcus aureus IAM 1011; assay: Antibacterial activity in vitro (MIC) against Staphylococcus aureus; type: cell-based; settings: IAM1011, Mueller-Hinton agar, 18 to 24 hours, 37° C., read-out: MIC (minimum growth inhibiting concentration) against Staphylococcus aureus
Protocol: (§5) (c) Anti-bacterial activity (in vitro):
(§6) Minimum concentration of the present compound inhibiting the growth of the following bacteria was determined according to the standard procedures of Japan Society of Chemotherapy:
Staphylococcus aureus IAM 1011
(§7) Determination of the antibacterial activity of the present compound produced in Examples 1 to 18, respectively was carried out according to the standard procedures of Japan Society of Chemotherapy for finding MIC (the minimum concentration of a specimen to inhibit the growth of a species of bacteria).
(§8) A series of diluted solutions of each of the present compound were mixed with 9 times by weight of Mueller-Hinton's culture medium as the culture medium for determining the sensitivity of a bacterial species, and flat agar culture plates were prepared by using the thus obtained mixture.
(§9) Each of the liquids respectively containing one of the bacterial species shown in Table 2 was smeared onto each of the thus prepared flat agar culture plates with a platinum loop, in length of about 2 cm, and the thus treated plates were incubated for 18 to 24 hours at 37° C. Thereafter, by observing the growth state of each bacterial species on the cultured plates, the minimum concentration of each compound completely inhibiting the growth of each bacterial species was found.

Lactobacillus bifidus = assay: Effect on intestinal bacteria: number of Lactobacillus bifidus in feces; type: in vivo, ICR mice; settings: mouse, in vivo, po, 500 mg/kg/day
Protocol: as §1, §2, §3, §4
BS agar 37° C., 5 days, […]

Pseudomonas aeruginosa = assay: Effect on intestinal bacteria: number of Pseudomonas aeruginosa in feces; type: in vivo, ICR mice; settings: mouse, in vivo, po, 500 mg/kg/day
Protocol: as §2, §3, §4
NAC agar 37° C., one day, […]

[2] = system: a species of Streptococcus; assay: Effect on intestinal bacteria: number of a sp. of Streptococcus in feces; type: in vivo, ICR mice; settings: mouse, in vivo, po, 500 mg/kg/day
Protocol: as §1, §2, §3, §4
a species of Streptococcus
TATAC agar 37° C., one day, […]

Escherichia coli = assay: Effect on intestinal bacteria: number of Escherichia coli in feces; type: in vivo, ICR mice; settings: after oral administration for 2 days, 500 mg/kg/day, female ICR mice; before: 6.4
Protocol: (b) Effect on the intestinal bacterial colonies:
[…] Each portion of the two kinds of the feces was cultured at 25° C. or 37° C. in a variety of culture medium for one to five days to see the state of Escherichia coli, Pseudomonas aeruginosa, a Streptococcus species, a Lactobacillus species, Lactobacillus bifidus and a Bacteroides species in the culture medium.
as §2
as §4, with “specimens respectively collected from each mouse before and after one day of the administration was diluted with 100 times” left out

[3] = system: Escherichia coli IFO 12734; assay: Antibacterial activity in vitro (MIC) against Escherichia coli; type: cell-based; settings: IFO12734, Mueller-Hinton agar, 18 to 24 hours, 37° C., read-out: MIC (minimum growth inhibiting concentration) against Escherichia coli
Protocol: as §5, §6
Escherichia coli IFO 12734 and
as §7, §8, §9

[4] = system: a species of Lactobacillus; assay: Effect on intestinal bacteria: number of a sp. of Lactobacillus in feces; type: in vivo, ICR mice; settings: mouse, in vivo, po, 500 mg/kg/day
Protocol: as §1, §2, §3, §4
a species of Lactobacillus
LBS agar 37° C., 5 days, […]

| SMILES | Number of a sp. of Bacterioides after the administration (a species of Bacteroides) | MIC [1] | Number of Lactobacillus bifidus after the administration (Lactobacillus bifidus) | Number of Pseudomonas aeruginosa after the administration (Pseudomonas aeruginosa) | Number of a sp. of Streptococcus after the administration [2] | Number of Escherichia coli after the administration (Escherichia coli) | MIC [3] | Number of a sp. of Lactobacillus after the administration [4] |
| --- | --- | --- | --- | --- | --- | --- | --- | --- |
| Cc1nnc(SCC2=C(C(=O)Nc3ccc(C(=O)O)cc3)N3C(=O)C(NC(=O)Cn4cnnn4)C3SC2)s1 (stereo not drawn) [Example 12, N-(4-carboxyphenyl)-{7-(1-1H-tetrazolylacetamido)-3-[2-(5-methyl-1,3,4-thiadiaziolyl)thiomethyl]-3-cephem-4-carboxylic}amide] | 8.8 Log10 (number of bacteria/g feces) | ≥ 1.56 µg/mL | 8.2 Log10 (number of bacteria/g feces) | < 3.0 Log10 (number of bacteria/g feces) | 6.7 Log10 (number of bacteria/g feces) | 6.5 Log10 (number of bacteria/g feces) | ≥ 25 µg/mL | 8.9 Log10 (number of bacteria/g feces) |
| Cc1nnc(SCC2=C(C(=O)Nc3ccc(C(N)=O)cn3)N3C(=O)C(NC(=O)Cn4cnnn4)C3SC2)s1 (stereo not drawn) [Example 18, N-(6-nicotinic amide)-{7-(1-1h-tetrazolylacetamido)-3-[2-(5-methyl-1,3,4-thiadiazolyl)thiomethyl]-3-cepehem-4-carboxylic}amide] | 8.1 Log10 (number of bacteria/g feces) | ≥ 12.5 µg/mL | 8.4 Log10 (number of bacteria/g feces) | < 3.0 Log10 (number of bacteria/g feces) | 6.9 Log10 (number of bacteria/g feces) | 6.4 Log10 (number of bacteria/g feces) | ≥ 100 µg/mL | 9.0 Log10 (number of bacteria/g feces) |
| COC(=O)Cc1ccc(NC(=O)C2=C(COC(C)=O)CSC3C(NC(=O)CC#N)C(=O)N23)cc1 (stereo not drawn) [Example 8, N-(4-carbomethoxymethylphenyl)-7-[(2-cyanoacetamido)cephalosporanic]amide] | 8.9 Log10 (number of bacteria/g feces) | ≥ 100 µg/mL | 8.4 Log10 (number of bacteria/g feces) | < 3.0 Log10 (number of bacteria/g feces) | 6.6 Log10 (number of bacteria/g feces) | 6.6 Log10 (number of bacteria/g feces) | ≥ 100 µg/mL | 9.1 Log10 (number of bacteria/g feces) |
| COC(=O)CNC(=O)c1ccc(NC(=O)C2=C(COC(C)=O)CSC3C(NC(=O)CC#N)C(=O)N23)cc1 (stereo not drawn) [Example 9, N-(4-carbomethoxymethylcarbamoylphenyl)-[7-(2-cyanoacetamido)cephalosporanic]amide] | 8.5 Log10 (number of bacteria/g feces) | ≥ 100 µg/mL | 8.4 Log10 (number of bacteria/g feces) | < 3.0 Log10 (number of bacteria/g feces) | 6.7 Log10 (number of bacteria/g feces) | 6.5 Log10 (number of bacteria/g feces) | ≥ 100 µg/mL | 8.9 Log10 (number of bacteria/g feces) |
| CC(=O)OCC1=C(C(=O)Nc2ccc(C(N)=O)cn2)N2C(=O)C(NC(=O)CC#N)C2SC1 (stereo not drawn) [Example 11, N-(nicotinic amido)-[7-(2-cyanoacetamido)cephalosporanic]amide] | 8.6 Log10 (number of bacteria/g feces) | ≥ 100 µg/mL | 8.2 Log10 (number of bacteria/g feces) | < 3.0 Log10 (number of bacteria/g feces) | 6.7 Log10 (number of bacteria/g feces) | 6.8 Log10 (number of bacteria/g feces) | ≥ 100 µg/mL | 9.1 Log10 (number of bacteria/g feces) |
| COC(=O)c1ccc(NC(=O)C2=C(COC(C)=O)CSC3C(NC(=O)CC#N)C(=O)N23)cc1 (stereo not drawn) [Example 7, N-(4-carbomethoxyphenyl)-[7-(2-cyanoacetamido)cephalosporanic]amide] | 8.7 Log10 (number of bacteria/g feces) | ≥ 100 µg/mL | 8.3 Log10 (number of bacteria/g feces) | < 3.0 Log10 (number of bacteria/g feces) | 6.7 Log10 (number of bacteria/g feces) | 6.5 Log10 (number of bacteria/g feces) | ≥ 100 µg/mL | 9.0 Log10 (number of bacteria/g feces) |
| Cc1ccc(NC(=O)C2=C(CSc3nnc(C)s3)CSC3C(NC(=O)Cn4cnnn4)C(=O)N23)cc1 (stereo not drawn) [Example 16, N-(4-methylphenyl)-{7-(1-1H-tetrazolylacetamido)-3-[2-(5-methyl-1,3,4-thiadiazolyl)thiomethyl]-3-cephem-4-carboxylic}amide] | 8.1 Log10 (number of bacteria/g feces) | ≥ 12.5 µg/mL | 8.3 Log10 (number of bacteria/g feces) | < 3.0 Log10 (number of bacteria/g feces) | 6.5 Log10 (number of bacteria/g feces) | 6.5 Log10 (number of bacteria/g feces) | ≥ 100 µg/mL | 9.2 Log10 (number of bacteria/g feces) |
| COC(=O)c1ccc(NC(=O)C2=C(COC(C)=O)CSC3C(NC(=O)CSc4ccncc4)C(=O)N23)cc1 (stereo not drawn) [Example 1, N-(4-carbomethoxyphenyl)-[7-beta-(4-pyridylthioacetamido)cephalosporanic]amide] | 8.8 Log10 (number of bacteria/g feces) | ≥ 12.5 µg/mL | 8.4 Log10 (number of bacteria/g feces) | < 3.0 Log10 (number of bacteria/g feces) | 6.7 Log10 (number of bacteria/g feces) | 6.9 Log10 (number of bacteria/g feces) | ≥ 100 µg/mL | 9.1 Log10 (number of bacteria/g feces) |
| COC(=O)Cc1ccc(NC(=O)C2=C(CSc3nnc(C)s3)CSC3C(NC(=O)Cn4cnnn4)C(=O)N23)cc1 (stereo not drawn) [Example 14, N-(4-carbomethoxymethylphenyl)-{7-(1-1H-tetrazolylacetamido)-3-[2-(5-methyl-1,3,4-thiadiazolyl)thiomethyl]-3-cephem-4-carboxylic}amide] | 8.4 Log10 (number of bacteria/g feces) | ≥ 12.5 µg/mL | 8.2 Log10 (number of bacteria/g feces) | < 3.0 Log10 (number of bacteria/g feces) | 6.6 Log10 (number of bacteria/g feces) | 6.4 Log10 (number of bacteria/g feces) | ≥ 100 µg/mL | 9.0 Log10 (number of bacteria/g feces) |
